Reference: US20070117743A1, “New antitumoral compounds” (priority 2003, published 2007)
Where a SMILES comes first, the peptide text is derived from it. Bridges are numbered along the chain shown (N, C = ends). [ ]: non-standard residue; d: D form. The star is where a group is joined. d(aIle) = CC[C@H](C)[C@@H](N)C(=O)O; d(aThr) = C[C@@H](O)[C@@H](N)C(=O)O; Hexanoyl(5-Me) = CC(C)CCCC(=O)*; Orn = NCCC[C@H](N)C(=O)O; Dhb = C/C=C(\N)C(=O)O

What was measured:
Assay type in all cases: cell-based, human
A-549 = experiment: SRB colorimetric assay of cell growth and viability, A-549; details: 48 hours exposure; for GI50: read-out: GI50 A-549; for CC50: read-out: LC50 A-549
Source text: (§1) The finality of this assay is to interrupt the growth of a “in vitro” tumor cell culture by means a continued exhibition of the cells to the sample to be testing.
(§2) This form of the assay employs 96 well cell culture microplates of 9 mm diameter (Faircloth, 1988; Mosmann, 1983). Most of the cell lines are obtained from American Type Culture Collection (ATCC) derived from different human cancer types.
(§3) Cells are maintained in RPMI 1640 10% FBS, supplemented with 0.1 g/l penicillin and 0.1 g/l streptomycin sulfate and then incubated at 37° C., 5% CO2 and 98% humidity. For the experiments, cells were harvested from subconfluent cultures using trypsin and resuspended in fresh medium before plating.
(§4) Cells are seeded in 96 well microtiter plates, at 5×10^3 cells per well in aliquots of 195 μL medium, and they are allowed to attach to the plate surface by growing in drug free medium for 18 hours. Afterward, samples are added in aliquots of 5 μL in a ranging from 10 to 10^−8 μg/mL, dissolved in DMSO:EtOH:PBS (0.5:0.5:99). After 48 hours exposure, the antitumor effect are measured by the SRB methodology: cells are fixed by adding 50 μL of cold 50% (wt/vol) trichloroacetic acid (TCA) and incubating for 60 minutes at 4° C. Plates are washed with deionized water and dried. One hundred μL of SRB solution (0.4% wt/vol in 1% acetic acid) is added to each microtiter well and incubated for 10 minutes at room temperature. Unbound SRB is removed by washing with 1% acetic acid. Plates are air dried and bound stain is solubilized with Tris buffer. Optical densities are read on a automated spectrophotometric plate reader at a single wavelength of 490 nm.
(§5) The values for mean+/− SD of data from triplicate wells are calculated. Some parameters for cellular responses can be calculated: GI=growth inhibition, TGI=total growth inhibition (cytostatic effect) and LC=cell killing (cytotoxic effect).

SK-MEL-28 = experiment: SRB colorimetric assay of cell growth and viability, SK-MEL-28; details: 48 hours exposure; for CC50: read-out: LC50 MEL-28
Source text: as §1, §2, §3, §4, §5

HT-29 = experiment: SRB colorimetric assay of cell growth and viability, HT-29; details: 48 hours exposure; for GI50: read-out: GI50 HT-29; for CC50: read-out: LC50 HT-29
Source text: as §1, §2, §3, §4, §5

LoVo = experiment: SRB colorimetric assay of cell growth and viability, LoVo; details: 48 hours exposure; for CC50: read-out: LC50 LOVO
Source text: as §1, §2, §3, §4, §5

LoVo-Dox = experiment: SRB colorimetric assay of cell growth and viability, LoVo-Dox; details: 48 hours exposure; for CC50: read-out: LC50 LOVO-DOX
Source text: as §1
A colorimetric type of assay, using sulforhodamine B (SRB) reaction has been adapted for a quantitative measurement of cell growth and viability [following the technique described by Philip Skehan, et al. (1990), New colorimetric cytotoxicity assay for anticancer drug screening, J. Natl. Cancer Inst., 82:1107-1112].
as §2, §3, §4, §5

DU-145 = experiment: SRB colorimetric assay of cell growth and viability, DU-145; details: 48 hours exposure
Source text: as §1, §2, §3, §4, §5

IGROV-1 = experiment: SRB colorimetric assay of cell growth and viability, IGROV-1; details: 48 hours exposure
Source text: as §1, §2, §3, §4, §5

IGROV-ET = experiment: SRB colorimetric assay of cell growth and viability, IGROV-ET; details: 48 hours exposure; for CC50: read-out: LC50 IGROV-ET
Source text: as §1, §2, §3, §4, §5

HeLa = experiment: SRB colorimetric assay of cell growth and viability, HeLa; details: 48 hours exposure; for CC50: read-out: LC50 HELA
Source text: as §1, §2, §3, §4, §5

HeLa-APL = experiment: SRB colorimetric assay of cell growth and viability, HeLa-APL; details: 48 hours exposure; for CC50: read-out: LC50 HELA-APL
Source text: as §1, §2, §3, §4, §5

K-562 = experiment: SRB colorimetric assay of cell growth and viability, K-562; details: 48 hours exposure; for CC50: read-out: LC50 K-562
Source text: as §1, §2, §3, §4, §5

PANC-1 = experiment: SRB colorimetric assay of cell growth and viability, PANC-1; details: 48 hours exposure; for CC50: read-out: LC50 PANC-1
Source text: as §1, §2, §3, §4, §5

SMILES	TGI A-549 (A-549) [Molar]	GI50 (A-549) [µM]	CC50 (A-549) [µM]	GI50 (SK-MEL-28) [µM]	TGI MEL-28 (SK-MEL-28) [Molar]	CC50 (SK-MEL-28) [µM]	TGI HT-29 (HT-29) [Molar]	GI50 (HT-29) [µM]	CC50 (HT-29) [µM]	GI50 (LoVo) [µM]	TGI LOVO (LoVo) [Molar]	CC50 (LoVo) [µM]	GI50 (LoVo-Dox) [µM]	TGI LOVO-DOX (LoVo-Dox) [Molar]	CC50 (LoVo-Dox) [µM]	GI50 (DU-145) [µM]	LC50 (concentration causing 50% net cell kill) (DU-145) [µM]	TGI DU-145 (DU-145) [Molar]	GI50 (IGROV-1) [µM]	LC50 (concentration causing 50% net cell killing) (IGROV-1) [µM]	other results
C/C=C1\NC(=O)[C@H](Cc2ccccc2)NC(=O)[C@@H](C(C)C)NC(=O)[C@@H]([C@@H](C)CC)NC(=O)[C@H](NC(=O)[C@H](NC(=O)[C@H](CCCN)NC(=O)[C@H]2CCCN2C(=O)[C@H](NC(=O)[C@@H](NC(=O)CNC(=O)CCCC(C)C)C(C)C)C(C)C)[C@@H](C)CC)[C@@H](C)OC(=O)[C@H](C(C)C)NC1=O [Compound 53, [Gly^12, noD-Val^13]-KF] ({Hexanoyl(5-Me)}-GV[dV][dP][Orn][d(aIle)][d(aThr)][d(aIle)][dV]F[Dhb]V; ester 7-C)	7.49E−06	7.49	7.49	7.49	7.49E−06	7.49	7.49E−06	7.49	7.49	5.29	7.49E−06	7.49	7.49	7.49E−06	7.49	7.49	7.49	7.49E−06	7.49	7.49	TGI IGROV (IGROV-1): 7.49E−06 Molar; GI50 (IGROV-ET): 3.31 µM; TGI IGROV-ET (IGROV-ET): 7.49E−06 Molar; CC50 (IGROV-ET): 7.49 µM; GI50 (HeLa): 7.49 µM; TGI HELA (HeLa): 7.49E−06 Molar; CC50 (HeLa): 7.49 µM; GI50 (HeLa-APL): 7.49 µM; TGI HELA-APL (HeLa-APL): 7.49E−06 Molar; CC50 (HeLa-APL): 7.49 µM; GI50 (K-562): 7.49 µM; TGI K-562 (K-562): 7.49E−06 Molar; CC50 (K-562): 7.49 µM; GI50 (PANC-1): 4.17 µM; TGI PANC-1 (PANC-1): 7.49E−06 Molar; CC50 (PANC-1): 7.49 µM
C/C=C1\NC(=O)[C@H](Cc2ccccc2)NC(=O)[C@@H](C(C)C)NC(=O)[C@@H]([C@@H](C)CC)NC(=O)[C@H](NC(=O)[C@H](NC(=O)[C@H](CCCN)NC(=O)[C@H]2CCCN2C(=O)[C@H](NC(=O)[C@@H](NC(=O)[C@H](CCC(=O)O)NC(=O)CCCC(C)C)C(C)C)C(C)C)[C@@H](C)CC)[C@@H](C)OC(=O)[C@H](C(C)C)NC1=O [Compound 56, [Glu^12, noD-Val^13]-KF] ({Hexanoyl(5-Me)}-EV[dV][dP][Orn][d(aIle)][d(aThr)][d(aIle)][dV]F[Dhb]V; ester 7-C)	7.11E−06	0.168	≥ 7.11	≥ 7.11	7.11E−06	≥ 7.11	7.11E−06	≥ 7.11	≥ 7.11	2.22	7.11E−06	≥ 7.11	≥ 7.11	7.11E−06	≥ 7.11	1.95	≥ 7.11	7.11E−06	2.78	≥ 7.11	TGI IGROV (IGROV-1): 7.11E−06 Molar; GI50 (IGROV-ET): 1.39 µM; TGI IGROV-ET (IGROV-ET): 7.11E−06 Molar; CC50 (IGROV-ET): ≥ 7.11 µM; GI50 (HeLa): 0.37 µM; TGI HELA (HeLa): 7.11E−06 Molar; CC50 (HeLa): ≥ 7.11 µM; GI50 (HeLa-APL): ≥ 7.11 µM; TGI HELA-APL (HeLa-APL): 7.11E−06 Molar; CC50 (HeLa-APL): ≥ 7.11 µM; GI50 (K-562): ≥ 7.11 µM; TGI K-562 (K-562): 7.11E−06 Molar; CC50 (K-562): ≥ 7.11 µM; GI50 (PANC-1): 0.118 µM; TGI PANC-1 (PANC-1): 7.11E−06 Molar; CC50 (PANC-1): ≥ 7.11 µM
C/C=C1\NC(=O)[C@H](Cc2ccccc2)NC(=O)[C@@H](C(C)C)NC(=O)[C@@H]([C@@H](C)CC)NC(=O)[C@H](NC(=O)[C@H](NC(=O)[C@H](CCCN)NC(=O)[C@H]2CCCN2C(=O)[C@H](NC(=O)[C@@H](NC(=O)[C@H](CC(C)C)NC(=O)CCCC(C)C)C(C)C)C(C)C)[C@@H](C)CC)[C@@H](C)OC(=O)[C@H](C(C)C)NC1=O [Compound 54, [Leu^12, noD-Val^13]-KF] ({Hexanoyl(5-Me)}-LV[dV][dP][Orn][d(aIle)][d(aThr)][d(aIle)][dV]F[Dhb]V; ester 7-C)	2.19E−06	1.14	4.23	1.24	2.20E−06	3.9	3.51E−06	1.88	6.55	1.08	2.14E−06	4.21	1.55	2.88E−06	5.37	1.49	4.61	2.62E−06	1.11	3.92	TGI IGROV (IGROV-1): 2.09E−06 Molar; GI50 (IGROV-ET): 1.45 µM; TGI IGROV-ET (IGROV-ET): 2.57E−06 Molar; CC50 (IGROV-ET): 4.57 µM; GI50 (HeLa): 0.841 µM; TGI HELA (HeLa): 1.73E−06 Molar; CC50 (HeLa): 3.54 µM; GI50 (HeLa-APL): 1.08 µM; TGI HELA-APL (HeLa-APL): 2.04E−06 Molar; CC50 (HeLa-APL): 3.88 µM; GI50 (K-562): 1.31 µM; TGI K-562 (K-562): 2.40E−06 Molar; CC50 (K-562): 4.41 µM; GI50 (PANC-1): 0.863 µM; TGI PANC-1 (PANC-1): 2.01E−06 Molar; CC50 (PANC-1): 4.68 µM
C/C=C1\NC(=O)[C@H](Cc2ccccc2)NC(=O)[C@@H](C(C)C)NC(=O)[C@@H]([C@@H](C)CC)NC(=O)[C@H](NC(=O)[C@H](NC(=O)[C@H](CCCN)NC(=O)[C@H]2CCCN2C(=O)[C@H](NC(=O)[C@@H](NC(=O)[C@@H](NC(=O)[C@@H](NC(=O)CCCC(C)C)C(C)C)[C@@H](C)O)C(C)C)C(C)C)[C@@H](C)CC)[C@@H](C)OC(=O)[C@H](C(C)C)NC1=O [Compound 38, [Val^13]-KF]	9.88E−07	0.307	2.44	0.805	1.68E−06	3.55	2.12E−06	1.16	3.88	1.29	2.40E−06	4.47	1.12	1.94E−06	3.36	1.66	4.22	2.65E−06	1.01	3.53	TGI IGROV (IGROV-1): 1.89E−06 Molar; GI50 (IGROV-ET): 1.97 µM; TGI IGROV-ET (IGROV-ET): 2.97E−06 Molar; CC50 (IGROV-ET): 4.49 µM; GI50 (HeLa): 0.046 µM; TGI HELA (HeLa): 1.55E−07 Molar; CC50 (HeLa): 0.583 µM; GI50 (HeLa-APL): 1.85 µM; TGI HELA-APL (HeLa-APL): 2.88E−06 Molar; CC50 (HeLa-APL): 4.49 µM; GI50 (K-562): 1.28 µM; TGI K-562 (K-562): 2.28E−06 Molar; CC50 (K-562): 4.05 µM; GI50 (PANC-1): 0.0254 µM; TGI PANC-1 (PANC-1): 1.20E−07 Molar; CC50 (PANC-1): 0.988 µM
